# Tests used:
# Assay type in all cases: in vivo
# [1] = tested on: guinea pig model of allergic asthma (ovalbumin-sensitized, airway responsiveness to inhaled histamine); experiment: Reversal of allergen-induced AHR in guinea pig model of allergic asthma (reversion protocol); details: for effect on allergen-induced AHR after the EAR (histamine PC100): inhalation at 5.5 h after ovalbumin; for effect on allergen-induced AHR after the EAR (histamine PC100) / effect on allergen-induced AHR after the LAR (histamine PC100) / effect on basal airway responsiveness to inhaled histamine (PC100): ABH 25 mM, L- or D-arginine 1 M nebulizer concentration; for effect on allergen-induced AHR after the LAR (histamine PC100): inhalation at 23.5 h after ovalbumin; for effect on basal airway responsiveness to inhaled histamine (PC100): inhaled 15 min, PC100 30 min before and after inhalation
# Source text: (§1) Outbred male specified pathogen free Dunkin Hartley guinea pigs (Harlan Heathfield, UK) were used in this example. All animals, weighing approximately 250 g, were actively IgE-sensitized to ovalbumin as described by Van Amsterdam et al. [Agents Actions 1989, 26:48-51]. The animals were operated on 2 weeks after sensitization and used experimentally in weeks 4 and 5 after sensitization. The animals were housed in individual cages in climate controlled animal quarters and given water and food ad libitum, while a 12 h on/12 h off light cycle was maintained. All protocols described in this study were approved by the University of Groningen Committee for Animal Experimentation.
# (§2) Airway function was assessed by on-line measurement of pleural pressure (Ppl) under unrestrained conditions as described previously [Santing et al., Pulm Pharmacol 1992, 5:265-272; Meurs et al., Nature Protocols 2006, 1:840-847].
# (§3) In short, a small fluid filled latex balloon catheter was surgically implanted inside the thoracic cavity. The free end of the catheter was driven subcutaneously to the neck of the animal, where it was exposed and attached permanently. Via an external fluid filled cannula, the pleural balloon catheter was connected to a pressure transducer (TXX R, Viggo-Spectramed, Bilthoven, Netherlands). Ppl (in cm H2O) was measured continuously using an on-line computer system.
# (§4) Allergen and histamine provocations were performed by inhalation of aerosolized solutions. These provocations were carried out in a specially designed perspex cage of 9 l, in which the guinea pigs could move freely as previously described [Santing et al.; Meurs et al., both supra]. A DeVilbiss nebulizer (type 646) driven by an airflow of 8 l/min provided the aerosol with an output of 0.33 ml/min. The animals were habituated to the experimental conditions and the provocations procedure at least one week after surgery, when preoperative weight was restored, as described previously [Meurs et al, supra].
# (§5) On the experimental days following the habituation procedure, allergen and/or histamine provocations were performed as described below. All provocations were preceded by an adaptation period of at least 30 min, followed by two consecutive control provocations with saline, each provocation lasting 3 min and separated by 7 min intervals. A baseline Ppl value was calculated by averaging the Ppl values from the last 20 min of the adaptation period.
# (§6) In order to assess the airway reactivity for histamine, provocations with increasing concentration steps (6.25, 12.5, 25, 50, 75, 100 and 125 μg/ml) in saline were performed. Histamine provocations lasted 3 min and were separated by 7 min intervals. Animals were challenged until Ppl was increased by more than 100% above baseline for at least 3 consecutive minutes. The concentration of histamine causing a 100% increase of Ppl (PC 100) was derived by linear interpolation of the concentration Ppl curve and was used as an index for airway reactivity towards histamine. Ppl returned to baseline within 15 min after the last histamine provocation.
# (§7) Allergen provocations were performed by inhalation of increasing concentrations of 0.5, 1.0 or 3.0 mg/ml ovalbumin in saline and were discontinued when the first signs of respiratory distress were observed and an increase in Ppl of more than 100% was reached.
# On two different occasions, separated by one week interval, guinea pigs were treated either with vehicle (saline) or drug (ABH, L-arginine or D-arginine), to establish the acute effects of these drugs on basal airway responsiveness to histamine as well as on allergen-induced airway hyperresponsiveness (AHR) after the EAR and the LAR (FIG. 2).
# On the first experimental day, saline- or drug induced effects on basal histamine reactivity were established. Thirty minutes after the assessment of the basal histamine PC100, an aerosol of saline (control) or 25 mM ABH, 1.0 M L-arginine or 1.0 M D-arginine (nebulizer concentrations) was inhaled for 15 min. […]
# [2] = tested on: guinea pig model of allergic asthma (ovalbumin-sensitized); experiment: Prevention of allergen-induced EAR, LAR and AHR by pretreatment, equal allergen dose for both treatment groups (protection protocol, second experiment)
# Source text: as §1, §2, §3, §4, §5, §6, §7
# In a second experiment, animals were challenged once with allergen. On the first experimental day, the basal histamine PC100 was assessed. The next day, animals were pretreated with either saline or ABH (25 mM; nebulizer concentration) 0.5 h before and 8 h after allergen inhalation. The ABH pretreated animals were challenged with the same allergen dose that caused airway obstruction in the saline treated guinea pigs. […]
# [3] = tested on: guinea pig model of allergic asthma (ovalbumin-sensitized); experiment: Prevention of allergen-induced AHR by pretreatment, animals challenged with increasing allergen doses until obstruction (protection protocol)
# Source text: as §1, §2, §3, §4, §5, §6, §7
# On the first experimental day, the basal histamine PC100 was assessed. The next day, saline was inhaled for 15 min, 0.5 h prior to and at 8 h after allergen inhalation, and histamine PC100 measurements were performed 6 and 24 h post allergen challenge. One week later, the same protocol was repeated with inhalations of either 25 mM ABH (nebulizer concentration) or saline at t=−0.5 and 8 h. All animals were challenged with increasing doses of allergen (0.5, 1 and 3 mg/ml) until obstruction. […]
# [4] = ABH 25 mM nebulizer 0.5 h before and 8 h after allergen, equal allergen dose, mean ± SEM
Compound,"allergen-induced AHR after the EAR, PC100 ratio pre/post challenge ([1]; after ABH inhalation (25 mM nebulizer) at 5.5 h after ovalbumin, PC100 at 6 h, from 4.77±0.56-fold before inhalation, P<0.001)","allergen-induced AHR after the LAR, PC100 ratio pre/post challenge ([1]; after ABH inhalation (25 mM nebulizer) at 23.5 h after ovalbumin, PC100 at 24 h, from 1.95±0.23-fold before inhalation, P<0.10)",effect on allergen-induced AHR after the EAR (histamine PC100) [1],effect on allergen-induced AHR after the LAR (histamine PC100) [1],effect on basal airway responsiveness to inhaled histamine (PC100) [1],"AUC EAR (% change in Ppl time response curve between 0 and 5 h after allergen exposure) [2, 4]","AUC LAR (% change in Ppl time response curve between 8 and 24 h after allergen exposure) [2, 4]","initial peak response in Ppl after allergen challenge (allergen-induced acute bronchial obstruction) ([2]; ABH 25 mM nebulizer versus saline at the same allergen dose, P<0.01)","allergen-induced AHR after the LAR ([2]; equal allergen dose, saline treated 1.68±0.14-fold, P<0.005)","allergen-induced AHR after the EAR ([2]; equal allergen dose, saline treated 4.14±0.59-fold, P<0.01)","AHR100 (PC100 ratio pre/post allergen challenge) after EAR ([2]; histamine PC100 24 h before and 6 h after allergen, ABH 25 mM nebulizer 0.5 h before and 8 h after allergen, equal allergen dose)","AHR100 (PC100 ratio pre/post allergen challenge) after LAR ([2]; histamine PC100 24 h before and 24 h after allergen, ABH 25 mM nebulizer 0.5 h before and 8 h after allergen, equal allergen dose)",protection against the AHR after the EAR as compared to saline control ([3]; 25 mM ABH 0.5 h before allergen challenge),"allergen-induced AHR after the LAR, PC100 ratio pre/post challenge ([3]; ABH 25 mM nebulizer 0.5 h before and 8 h after allergen, challenged until obstruction, saline control 2.08±0.31-fold, P<0.005)","allergen-induced AHR after the EAR, PC100 ratio pre/post challenge ([3]; ABH 25 mM nebulizer 0.5 h before and 8 h after allergen, challenged until obstruction, saline control week 1 6.33±1.30-fold, P<0.05)",fold higher ovalbumin needed to induce airways obstruction compared to saline treatment ([3]; ABH week 2 versus saline of the same animals week 1),occurrence of AHR after the LAR ([3]; additional inhalation of 25 mM ABH at 8 h after allergen challenge),"ovalbumin dose needed to induce airways obstruction ([3]; after pretreatment with ABH 25 mM nebulizer in week 2, saline in same animals week 1 0.04±0.01 mg, P<0.01)"
"N[C@@H](CCCCB(O)O)C(=O)O [ABH, 2(S)-amino-6-boronohexanoic acid]",2.04±0.34 fold,1.56±0.47 fold,reversed the allergen-induced AHR after the EAR,trend towards a reduction,without effect,983 ± 345 % × 5 min,1697 ± 1043 % × 5 min,highly significant reduction,1.02±0.02 fold,1.58±0.24 fold,1.58 ± 0.24,1.02,significant protection,1.41±0.25 fold,3.05±0.51 fold,32.8 fold,almost completely prevented,1.31 ± 0.69 mg
"N=C(N)NCCC[C@@H](N)C(=O)O [D enantiomer of arginine, D-arginine]",–,–,did not affect,did not affect,did not affect,–,–,–,–,–,–,–,–,–,–,–,–,–
N=C(N)NCCC[C@H](N)C(=O)O [L-arginine],–,–,reversed to a similar extent as with ABH,reversed to a similar extent as with ABH,did not affect,–,–,–,–,–,–,–,–,–,–,–,–,–
